These results are taken from ChEMBL document CHEMBL4043273, “Phenotypic Optimization of Urea-Thiophene Carboxamides To Yield Potent, Well Tolerated, and Orally Active Protective Agents against Aminoglycoside-Induced Hearing Loss” (J Med Chem, 2018).

A value given as a limit tells only on which side of the number the result lay.

The species named for the test is Danio rerio. Put plainly: Protection against neomycin-induced hair cell death in AB zebra fish larvae assessed as increase in hair cell survival preincubated for 1 hr followed by neomycin challenge for 1 hr by DASPEI staining-based epifluorescence dissecting microscopic method. It counts as functional.
Usually EC50 stands for the concentration needed to bring the measured effect to its halfway point. As for `NC(=O)c1c(NC(=O)Nc2ccc(Cl)cc2)sc2c1CCN(CC1CCCCC1)C2`, the EC50 came to 1.89 µM.
On to `CCC1CCc2c(sc(NC(=O)Nc3ccc(Cl)cc3)c2C(N)=O)C1` (stereo not given), for which the EC50 was over 25 µM.
In the case of `CCN1CCc2c(sc(NC(=O)Nc3ccc(Cl)cc3)c2C#N)C1` it was over 25 µM.
Consider `NC(=O)c1c(NC(=O)Nc2ccc(Cl)cc2)sc2c1CCNC2`, for which the 50% effective concentration (EC50) was determined as 3.26 µM.
In the case of `CCN1CCc2c(sc(NC(=O)Nc3cccc(Cl)c3Cl)c2C(N)=O)C1`, the EC50 amounted to 17.4 µM.
As to `CC(C)(C)OC(=O)CCCCN1CCc2c(sc(NC(=O)Nc3ccc(Cl)cc3)c2C(N)=O)C1`, the EC50 turned out to be 0.71 µM.
In the case of `CCN1CCc2c(sc(NC(=O)Nc3ccc(Cl)cc3)c2C(=O)NC)C1`, the EC50 was over 25 µM.
Take `CCN1CCc2c(sc(N)c2C(N)=O)C1`: the EC50 was over 25 µM.
On to `NC(=O)c1c(NC(=O)Nc2ccc(Cl)cc2)sc2c1C[C@@H]1CC[C@H]2N1`, for which the EC50 stood at 0.27 µM.
As for `CC[N+]1(CC)CCc2c(sc(NC(=O)Nc3ccc(Cl)cc3)c2C(N)=O)C1`, the EC50 was determined as 0.45 µM.
The same measure for `NC(=O)c1c(NC(=O)Nc2ccc(Cl)cc2)sc2c1CCN(CCCNC(=O)CCc1cccc3ccccc13)C2`: 0.11 µM; for `CCN1CCCc2c(sc(NC(=O)Nc3ccc(Cl)cc3)c2C(N)=O)C1`: 3.98 µM.
For `CC(C)(C)OC(=O)CCCCCN1CCc2c(sc(NC(=O)Nc3ccc(Cl)cc3)c2C(N)=O)C1`, the 50% effective concentration (EC50) is 0.62 µM.
With `CCN1CCc2c(sc(NC(=O)Nc3ccc(Cl)cc3Cl)c2C(N)=O)C1`, the EC50 was determined as 11.5 µM.
As for `CCN1CCc2c(sc(NC(=O)Nc3ccc(Cl)cc3)c2C(=O)O)C1`, the EC50 is over 25 µM.
With `NC(=O)c1c(NC(=O)Nc2ccc(Cl)cc2)sc2c1[C@H]1CC[C@@H](C2)N1`, the EC50 worked out at 5 µM.
As for `CCC(O)c1cc2c(cc1NC(=O)Nc1ccc(Cl)cc1)OCCO2` (stereo not given), the EC50 is over 25 µM.
For `COCCCN1CCc2c(sc(NC(=O)Nc3ccc(Cl)cc3)c2C(N)=O)C1`, the EC50 is 2.4 µM.
`CCN1CCc2c(sc(NC(=O)Nc3ccc(-c4ccccc4)cc3)c2C(N)=O)C1`: the 50% effective concentration (EC50) turned out to be 3.39 µM.
Take `NC(=O)c1c(NC(=O)Nc2ccc(Cl)cc2)sc2c1[C@@H]1CC[C@H](C2)N1`: the EC50 is 0.03 µM.
With `CC(C)C[N+]1(C)CCc2c(sc(NC(=O)Nc3ccc(Cl)cc3)c2C(N)=O)C1` (stereo not given), the EC50 was 0.38 µM.
As for `CN1[C@H]2CC[C@@H]1c1c(sc(NC(=O)Nc3ccc(Cl)cc3)c1C(N)=O)C2`, the EC50 is over 2.25 µM.
`CCN1CCc2c(sc(NC(=O)Nc3ccc(Cl)cc3)c2C(=O)c2nnco2)C1`: the concentration for a half-maximal effect (EC50) was over 25 µM.
Turning to `CC(C)(C)OC(=O)N1CCc2c(sc(NC(=O)Nc3ccc(Cl)cc3)c2C(N)=O)C1`, the EC50 was over 25 µM.
The same measure for `CCN1CCc2c(sc(NC(=O)Nc3cccc(C#N)c3)c2C(N)=O)C1`: 10.3 µM; for `CC(C)(C)OC(=O)CCC[N+]1(C)CCc2c(sc(NC(=O)Nc3ccc(Cl)cc3)c2C(N)=O)C1` (stereo not given): 0.25 µM; for `C[N+]1(CC2CCCC2)CCc2c(sc(NC(=O)Nc3ccc(Cl)cc3)c2C(N)=O)C1` (stereo not given): 0.2 µM.
As for `CCN1CCc2c(sc(NC(=O)Nc3ccc(Cl)cc3)c2C(=O)NCCO)C1`, the EC50 was 9.4 µM.
As for `C[N+]1(CC2CCC2)CCc2c(sc(NC(=O)Nc3ccc(Cl)cc3)c2C(N)=O)C1` (stereo not given), the concentration for a half-maximal effect (EC50) turned out to be 0.21 µM.
For the molecule `CCN1CCc2c(sc(NC(=O)Nc3ccccc3)c2C(N)=O)C1`, the EC50 is over 25 µM.
In the case of `CC(C)CN1CCc2c(sc(NC(=O)Nc3ccc(Cl)cc3)c2C(N)=O)C1` it was 4.51 µM; in that of `CC(C)(C)OC(=O)CCCC[N+]1(C)CCc2c(sc(NC(=O)Nc3ccc(Cl)cc3)c2C(N)=O)C1` (stereo not given), 0.14 µM; in that of `CC1CCc2nc(NC(=O)Nc3ccc(Cl)cc3)sc2C1` (stereo not given), over 25 µM.
Turning to `CCN1CCc2c(ccc(NC(=O)Nc3ccc(Cl)cc3)c2C(N)=O)C1`, the EC50 is over 25 µM.
`CC(C)(C)C[N+]1(C)CCc2c(sc(NC(=O)Nc3ccc(Cl)cc3)c2C(N)=O)C1` (stereo not given): the EC50 turned out to be 0.29 µM.
Take `CCN1CCc2c(sc(NC(=O)c3ccccc3)c2C(N)=O)C1`: the EC50 is over 25 µM.
The same measure for `CC(C)(C)OC(=O)CCCN1CCc2c(sc(NC(=O)Nc3ccc(Cl)cc3)c2C(N)=O)C1`: 0.56 µM; for `CCN1CCc2c(sc(NC(=O)Nc3ccc(C(F)(F)F)cc3)c2C(N)=O)C1`: 2.91 µM.
For the molecule `CN1CCc2c(sc(NC(=O)Nc3ccc(Cl)cc3)c2C(N)=O)C1`, the EC50 was determined as 4.7 µM.
For the molecule `CCN1CCc2c(sc(NC(=O)NCC3CCCO3)c2C(N)=O)C1` (stereo not given), the EC50 is over 25 µM.
For the molecule `CN1[C@@H]2CC[C@H]1c1sc(NC(=O)Nc3ccc(Cl)cc3)c(C(N)=O)c1C2` (single isomer, unassigned), the EC50 was 7.21 µM.
In the case of `CCN1CCc2c(sc(NC(=O)Nc3ccc(Cl)cc3)c2C(=O)c2nc(C)no2)C1`, the EC50 is over 25 µM.
`CCN1CCc2c(sc(NC(=O)Nc3ccc(Cl)cc3)c2C(=O)NC2COC2)C1`: the EC50 was over 25 µM.
In the case of `CCN1CCc2c(sc(NC(=O)Nc3ccc(Cl)cc3)c2C(=O)NCCN2CCOCC2)C1`, the EC50 is 9.38 µM.
As to `CCN1CCc2c(sc(NC(=O)NCCN3CCOCC3)c2C(N)=O)C1`, the EC50 is over 25 µM.
Regarding `NC(=O)c1c(NC(=O)Nc2ccc(Cl)cc2)sc2c1CCN(CCCNC(=O)CCc1cccnc1)C2`, the concentration for a half-maximal effect (EC50) came out at 0.47 µM.
Turning to `C[N+]1(CC2CCCCC2)CCc2c(sc(NC(=O)Nc3ccc(Cl)cc3)c2C(N)=O)C1` (stereo not given), the EC50 turned out to be 0.1 µM.
In the case of `CCN1CCc2c(sc(NC=O)c2C(N)=O)C1` it was over 25 µM; in that of `CCN1CCc2c(sc(NC(=O)Nc3ccc(Cl)cc3)c2C(=O)OC)C1`, over 25 µM; in that of `CCN1CCc2c(sc(NC(=O)[C@@H]3CCCN3)c2C(N)=O)C1`, over 25 µM.
Regarding `CCN1CCc2c(sc(NC(=O)C3(C(=O)Nc4ccc(Cl)cc4)CC3)c2C(N)=O)C1`, the EC50 is over 25 µM.
Turning to `CCN1CCc2c(sc(NC(=O)Nc3cccc(C)c3)c2C(N)=O)C1`, the EC50 was 13 µM.
Consider `CCN1CCc2c(sc(NC(=O)C3(c4ccc(Cl)cc4)CC3)c2C(N)=O)C1`, for which the EC50 was over 25 µM.
Regarding `CCC(C)(C)C1CCc2c(sc(NC(=O)Nc3ccc(Cl)cc3)c2C(N)=O)C1` (stereo not given), the concentration for a half-maximal effect (EC50) is over 25 µM.
`CC(C)N1CCc2c(sc(NC(=O)Nc3ccc(Cl)cc3)c2C(N)=O)C1`: the 50% effective concentration (EC50) is 1.49 µM.
For the molecule `C[N+]1(CC2CC2)CCc2c(sc(NC(=O)Nc3ccc(Cl)cc3)c2C(N)=O)C1` (stereo not given), the EC50 was 0.36 µM.
On to `CCN1CCc2c(sc(NC(=O)Nc3ccc4ccccc4c3)c2C(N)=O)C1`, for which the EC50 was determined as 1.78 µM.
In the case of `CCN1CCc2c(sc(NC(=O)CN3CCCCC3)c2C(N)=O)C1` it was over 25 µM; in that of `CCN1CCc2sc(NC(=O)Nc3ccc(Cl)cc3)c(C(N)=O)c2C1`, 4.61 µM; in that of `CCCN1CCc2c(sc(NC(=O)Nc3ccc(Cl)cc3)c2C(N)=O)C1`, 3.5 µM.
In the case of `CC(C)(C)OC(=O)CCN1CCc2c(sc(NC(=O)Nc3ccc(Cl)cc3)c2C(N)=O)C1` it was 1.1 µM; in that of `CC(C)(C)CN1CCc2c(sc(NC(=O)Nc3ccc(Cl)cc3)c2C(N)=O)C1`, 5.56 µM.
With `CCN1CCc2c(sc(NC(=O)Nc3ccc(Cl)cc3)c2C(=O)N2CCOCC2)C1`, the EC50 is over 25 µM.
On to `C[N+]1(C2CCc3c(sc(NC(=O)Nc4ccc(Cl)cc4)c3C(N)=O)C2)CCC1` (stereo not given), for which the EC50 came out at 3.92 µM.
Take `COCCC[N+]1(C)CCc2c(sc(NC(=O)Nc3ccc(Cl)cc3)c2C(N)=O)C1` (stereo not given): the EC50 stood at 0.48 µM.
In the case of `CN1C2CCC1c1sc(NC(=O)Nc3ccc(Cl)cc3)c(C(N)=O)c1C2` (stereo not given), the EC50 was 0.62 µM.
`CCCCc1nnc(NC(=O)Nc2ccc(Cl)cc2)s1`: the EC50 was over 25 µM.
With `NC(=O)c1c(NC(=O)Nc2ccc(Cl)cc2)sc2c1CC1CCC2N1` (stereo not given), the EC50 is 0.21 µM.
The same measure for `O=C(Cc1ccc(Cl)cc1)Nc1nc(C(=O)N2CCCCC2)cs1`: over 25 µM; for `Cc1c(CN2CCOCC2)sc(NC(=O)Nc2ccc(Cl)cc2)c1C(N)=O`: 6.92 µM.
Regarding `CC(C)(C)OC(=O)CN1CCc2c(sc(NC(=O)Nc3ccc(Cl)cc3)c2C(N)=O)C1`, the EC50 is over 25 µM.
With `CC(C)(C)OC(=O)CCCCC[N+]1(C)CCc2c(sc(NC(=O)Nc3ccc(Cl)cc3)c2C(N)=O)C1` (stereo not given), the concentration for a half-maximal effect (EC50) is 0.11 µM.
In the case of `NC(=O)c1c(NC(=O)Nc2ccc(Cl)cc2)sc2c1CCN(CC1CCC1)C2` it was 1.36 µM; in that of `CCN1CCc2c(sc(NC(=O)Nc3ccc(I)cc3)c2C(N)=O)C1`, 1.62 µM; in that of `C[N+](C)(C)C1CCc2c(sc(NC(=O)Nc3ccc(Cl)cc3)c2C(N)=O)C1` (stereo not given), 5.87 µM.
Take `CCN1CCc2c(sc(NC(=O)NCc3cccc(Cl)c3)c2C(N)=O)C1`: the EC50 was over 25 µM.
Take `NC(=O)c1c(NC(=O)Nc2ccc(Cl)cc2)sc2c1C1CCC(C2)N1` (racemic): the EC50 amounted to 0.11 µM.
With `CCN1CCc2c(sc(NC(=O)Nc3ccc(Br)cc3)c2C(N)=O)C1`, the EC50 turned out to be 3.13 µM.
In the case of `CCN1Cc2sc(NC(=O)Nc3ccc(Cl)cc3)c(C(N)=O)c2C1` it was 4.34 µM.
Consider `NC(=O)c1c(NC(=O)Nc2ccc(Cl)cc2)sc2c1CCN(C1CCOCC1)C2`, for which the EC50 stood at 2.83 µM.
In the case of `CC(C)[N+]1(C)CCc2c(sc(NC(=O)Nc3ccc(Cl)cc3)c2C(N)=O)C1` (stereo not given), the EC50 is 0.96 µM.
Turning to `NC(=O)c1c(NC(=O)Nc2ccc(Cl)cc2)sc2c1CCN(CC1CCCC1)C2`, the EC50 was determined as 1.83 µM.
Take `CCN1CCc2sc(NC(=O)Nc3ccc(Cl)cc3)c(C(N)=O)c2CC1`: the EC50 was determined as 5.8 µM.
`CN1C2CCC1c1c(sc(NC(=O)Nc3ccc(Cl)cc3)c1C(N)=O)C2` (racemic): the concentration for a half-maximal effect (EC50) came to 0.36 µM.
Consider `NC(=O)c1c(NC(=O)Nc2ccc(Cl)cc2)sc2c1CCN(CC1CC1)C2`, for which the EC50 is 1.22 µM.
Turning to `CCN1CCc2c(sc(NC(=S)Nc3ccc(Cl)cc3)c2C(N)=O)C1`, the EC50 was 6.57 µM.
For the molecule `CCN1CCc2c(sc(NC(=O)Nc3cscc3C(=O)OC)c2C(N)=O)C1`, the EC50 is over 25 µM.
As for `NC(=O)c1c(NC(=O)Nc2ccc(Cl)cc2)sc2c1CCCC2`, the EC50 was over 25 µM.
With `CN1[C@H]2CC[C@@H]1c1sc(NC(=O)Nc3ccc(Cl)cc3)c(C(N)=O)c1C2` (single isomer, unassigned), the EC50 was 0.27 µM.
Take `NC(=O)c1c(NC(=O)Nc2ccc(Cl)cc2)sc2c1C[C@H]1CC[C@@H]2N1`: the EC50 turned out to be 3.92 µM.
